Measurements taken from patent US7297551B2, “Recombinant proteins and peptides for endotoxin biosensors, endotoxin removal, and anti-microbial and anti-endotoxin therapeutics” (priority 1998, dated 2007).
Marks after values point to notes of the source that are not given here. Ends that are not written are not given here. Peptide text beside a SMILES is read from it.

B1: rFCEE: truncated recombinant Factor C from pHILD2/CrFC21EE, amino acids 1-766, 90 kDa, with endotoxin-binding domain (protein, listed as Carcinoscorpius rotundicauda)
chain: MVLASFLVSGLVLGLLAQKMRPVQSKGVDLGLCDETRFECKCGDPGYVFNIPVKQCTYFYRWRPYCKPCDDLEAKDICPKYKRCQECKAGLDSCVTCPPNKYGTWCSGECQCKNGGICDQRTGACACRDRYEGVHCEILKGCPLLPSDSQVQEVRNPPDNPQTIDYSCSPGFKLKGMARISCLPNGQWSNFPPKCIRECAMVSSPEHGKVNALSGDMIEGATLRFSCDSPYYLIGQETLTCQGNGQWNGQIPQCKNLVFCPDLDPVNHAEHKVKIGVEQKYGQFPQGTEVTYTCSGNYFLMGFDTLKCNPDGSWSGSQPSCVKVADREVDCDSKAVDFLDDVGEPVRIHCPAGCSLTAGTVWGTAIYHELSSVCRAAIHAGKLPNSGGAVHVVNNGPYSDFLGSDLNGIKSEELKSLARSFRFDYVRSSTAGKSGCPDGWFEVDENCVYVTSKQRAWERAQGVCTNMAARLAVLDKDVIPNSLTETLRGKGLTTTWIGLHRLDAEKPFIWELMDRSNVVLNDNLTFWASGEPGNETNCVYMDIQDQLQSVWKTKSCFQPSSFACMMDLSDRNKAKCDDPGSLENGHATLHGQSIDGFYAGSSIRYSCEVLHYLSGTETVTCTTNGTWSAPKPRCIKVITCQNPPVPSYGSVEIKPPSRTNSISRVGSPFLRLPRLPLPLARAAKPPPKPRSSQPSTVDLASKVKLPEGHYRVGSRAIYTCESRYYELLGSQGRRCDSNGNWSGRPASCIPVCGRSDSPRSPFIWNG

Legend:
[1] = Protection of galactosamine-sensitized mice from LPS-induced lethality; format: in vivo, C57BL/6J mice; settings: 75 μg peptide, 2 ng LPS pre-incubated with peptide 30 minutes
Method: The anti-endotoxin potency of SSCrFCES was investigated in C57BL/6J mice. Mice are typically resistant to endotoxin. However, the sensitivity of mice to endotoxin can be enhanced >1,000-fold by co-injection with a liver-specific inhibitor, galactosamine (31). […] […] Lethality was observed over 3 days after injection. Statistical analysis were performed using the Kaplan-Meier test (32) and log rank pairwise test.

P. aeruginosa = experiment: Microbicidal concentration (MBC) assay; format: cell-based, Pseudomonas aeruginosa; settings: MBC
Method: Test strains cultured on Mueller-Hinton agar (MHA, Becton Dickinson, USA) were inoculated into 10 ml Mueller-Hinton broth (MHB, Becton Dickinson, USA) and grown overnight at 37° C. in a shaker incubator (Model 4536, Forma Scientific, Inc., USA) at 230 rpm. Overnight broth cultures were diluted to give a final cell density of 10^5 colony forming units/ml (cfu/ml). One hundred microliters of the bacterial suspension was dispensed into sterile polypropylene 8-strip PCR-tubes (Quality Scientific Plastics, USA). Eleven microliters of serially diluted sushi peptides, ranging in final concentrations of 0.03-4 μg/ml, were then added. The peptides were constituted at 10 times the required test concentrations in 0.01% acetic acid and 0.2% bovine serum albumin (BSA). Positive controls were cultures without test peptides. Uninoculated MHB was used as negative control. All tests were carried out in triplicate.
Cultures were incubated at 37° C. for 18-24 h, with the PCR-tubes held in horizontal position and shaken at 230 rpm. Cell counts were determined by standard drop-count method. The killing efficiency for the four sushi peptides were calculated based on standard drop-count method.

P. aeruginosa ATCC 27853 = experiment: Killing rate assay; format: cell-based, Pseudomonas aeruginosa; settings: peptides at 0.06 μg/ml, initial 10^9 cfu/ml
Source text: The killing rate assay was adapted from the MBC test above, with different contact time of peptides with the bacteria arrested at regular intervals and plated for colony count. An initial density of 10^9 cfu/ml was used. […] This is one of the important features of an effective therapeutic agent.

THP-1 monocytes = system: THP-1 monocytes
Method: Two×10^4 THP-1 monocytes in 50 μl of RPMI 1640 were mixed in a microtitre plate with 50 μl of increasing amount of 2-fold serial dilutions of SSCrFCES (0.004-4.0 mg/ml in PBS) and incubated for 60 min at 37° C. To determine cytotoxicity induced by the SSCrFCES, 20 μl of CellTiter96™ AQueous One Solution Reagent (Promega) was added into each well for 90 min at 37° C. [3-(4,5-dimethylthiazol-2-yl)-5-(3-carboxymethoxyphenyl)-2-(4-sulfophenyl)-2H-tetrazolium (MTS) is bioreduced by metabolically active cells into a colored formazan product that is soluble in tissue culture medium (27, 28). For detection, the absorbance was measured at 490 nm. To determine the ratio of cell lysis induced by SSCrFCES, two controls were used. Complete lysis (100%) was achieved by incubating cells in phosphate buffer saline containing 0.2% Tween-20 instead of medium only. This absorbance value corresponded to the background, as those cells could not metabolize MTS. The second control representing 0% lysis was determined by incubating cells in medium only. […] The experiment was done in triplicate.

Human erythrocytes = experiment: Hemolysis assay, human erythrocytes; format: cell-based; settings: 100 μg/ml
Method: Human and rabbit erythrocytes were both used to test the hemolytic activities of the peptides. Whole blood was collected in heparinized sterile syringe, transferred to sterile borosilicate tube and centrifuged at 1200 g for 5 minutes at 4° C. The supernatant including the leukocytes above the erythrocyte pellet was discarded. The erythrocytes were washed 3 times using three volumes of prechilled pyrogen-free saline (PFS). An erythrocyte suspension at 0.4% was prepared for the hemolysis assay. Serial two-fold dilutions of the peptides was prepared in PFS and 100 μl aliquots were added to equal volumes of 0.4% erythrocyte solution in a 96-well microtiter plate (Nunclon™ Δ surface, Nunc) to give final peptide concentrations ranging from 6 to 100 μg/ml. The mixtures were incubated at 37° C. for 1 h. The intact erythrocytes were then pelleted by centrifuging at 1000 g for 5 min. One hundred μl of the supernatant was transferred to a new 96-well microtiter plate and the amount of hemoglobin released into the supernatant was determined by reading the absorbance at 414 nm using a SPECTRAmax™ 340 plate reader with SOFTmax PRO™ version 1.2.0. A positive control with 100 μl of 0.4% erythrocyte lysed in 1% Triton-X 100 was taken as 100% lysis. The negative control was the erythrocytes in PFS alone, which gave minimal lysis. This was taken as 0%.

Escherichia coli = settings: time-kill kinetics tested on Escherichia coli; cited from earlier work
[2] = Modified Western blot LPS-binding assay of rFC; design: species or system E. coli; settings: 300 μg protein per LPS/lipid A strip
Method: LPS from E. coli 055:B5 (Sigma) was reconstituted to 2 μg/μl, and diphosphoryl lipid A from E. coli K12, D31m4 LPS (List Biologicals, Inc., USA) was made up to 1 μg/μl. The LPS-binding assay was based on modifications of earlier described protocols (45,61). Briefly, 10 μg aliquots of LPS/lipid A were electrophoresed on a denaturing 15% SDS-polyacrylamide gel and electroblotted onto Immobilon™ PVDF membrane. The membrane was cut into strips and each LPS/lipid A strip was subsequently incubated with 300 μg of proteins containing rFC. Detection of rFC binding to lipid A was accomplished by incubation with anti-Factor C antibody followed by alkaline phosphatase-conjugated secondary goat anti-rabbit antibody (Dako) and BCIP/NBT colorimetric substrate (Moss, Inc., USA).

[3] = Competition between rFC and CAL Factor C for LPS (fluorimetric assay); format: biochemical; settings: Biomax-50 enriched, 100 μg
Method: Carcinoscorpius amoebocyte lysate (CAL) containing native Factor C was used in an assay in which rFC competed with CAL Factor C for LPS. Because the rFC produced in P. pastoris lacks serine protease activity, the competition can be monitored by measuring the reduced enzymatic activity of CAL in a fluorimetric assay. Mixtures of 100 μl each of increasing concentrations of LPS or rFC, in fluorimetric assay buffer (50 mM Tris HCl pH 8, containing 0.1 M NaCl and 0.01 M CaCl2) were incubated at 37° C. for 1 h. Aliquots of 20 μg CAL were added to each mixture and the total volumes were made up to 2 ml with fluorimetric assay buffer. The reaction was continued at 37° C. for 1 h and the fluorimetric assay protocol (64) was followed. This involved the addition of 15 μl of 2 mM fluorimetric substrate N-t-Boc-Val-Pro-Arg-7-amido-4-methylcoumarin (Sigma) and incubation at 37° C. for 30 min. The reaction was terminated by the addition of 0.1 ml of glacial acetic acid (Merck). The product, amino methylcoumarin, was measured in fluorescence units (FU) on a Luminescence Spectrometer LS-5 (Perkin-Elmer) with excitation light at 380 nm and emission at 460 nm.
The percentage competition by rFC of the native Factor C enzyme activity of CAL was calculated based on comparison of enzyme activity with the negative control of pHILD2/151. […]
[formula] where FU represents fluorescence units.

[4] = system: Escherichia coli ATCC#25922; experiment: Bacteriostatic activity in in vitro culture, E. coli; format: cell-based; settings: within 2 h of incubation
Method: (§1) The bacteria used for the assay were Escherichia coli ATCC#25922, Salmonella typhimurium ATCC#14028, Pseudomonas aeruginosa ATCC#27853, Klebsiella pneumoniae ATCC#13883 and […]. A colony of each Gram-negative bacterium was inoculated into nutrient broth (Gibco, BRL) and grown at 37° C. until it reached the logarithmic phase of growth. The culture was diluted with nutrient broth to give 1-5×10^5 cells/ml. Aliquots of 2 ml culture were incubated with 1 mg rFC/ml of culture. Incubation was carried out at 37° C. At time intervals of 0, 2, 4, 6, and 24 h, the bacterial culture was vortexed to break up any agglutinated clumps. After vortexing, each culture was examined under the microscope to ensure homogeneity of bacteria. The culture was serially diluted with 0.85% saline, plated on nutrient agar (Oxoid) and incubated overnight at 37° C. for colony counting.

[5] = system: the various bacteria used; experiment: Bacteriostatic activity in in vitro cultures, the various bacteria used; format: cell-based; settings: crude full-length rFC; Sephadex G-100 enriched truncates
Method: as §1

Row | Molecule | Cytotoxicity (Cell lysis) BC50 (THP-1 monocytes) [µM] | Haemolytic Activity at 100 μg/ml peptide (hu RBC) % lysis (Human erythrocytes) [%] | also measured
1 | CC[C@H](C)[C@H](NC(=O)[C@H](CCCNC(=N)N)NC(=O)[C@H](C)NC(=O)[C@H](CCSC)NC(=O)CNC(=O)[C@H](CCCCN)NC(=O)[C@H](CC(C)C)NC(=O)[C@H](CCCCN)NC(=O)[C@H](Cc1ccccc1)NC(=O)CN)C(=O)N[C@@H](CO)C(=O)N[C@@H](CS)C(=O)N[C@@H](CC(C)C)C(=O)N1CCC[C@H]1C(=O)N[C@@H](CC(N)=O)C(=O)NCC(=O)N[C@@H](CCC(N)=O)C(=O)N[C@@H](Cc1c[nH]c2ccccc12)C(=O)N[C@@H](CO)C(=O)N[C@@H](CC(N)=O)C(=O)N[C@@H](Cc1ccccc1)C(=O)N1CCC[C@H]1C(=O)N1CCC[C@H]1C(=O)N[C@@H](CCCCN)C(=O)N[C@@H](CS)C(=O)N[C@H](C(=O)N[C@@H](CCCNC(=N)N)C(=O)N[C@@H](CCC(=O)O)C(=O)N[C@@H](CS)C(=O)N[C@@H](C)C(=O)N[C@@H](CCSC)C(=O)N[C@H](C(=O)N[C@@H](CO)C(=O)N[C@@H](CO)C(=O)O)C(C)C)[C@@H](C)CC [S1] (H-GFKLKGMARISCLPNGQWSNFPPKCIRECAMVSS-OH; N-terminus and C-terminus assumed) | – | – | Mouse Protection Assay [1]: 22% at 75; Anti-microbial Potency P. aeruginosa MBC90 (P. aeruginosa): 0.03 µg/mL; Killing rate (time to achieve MBC90) (P. aeruginosa ATCC 27853): 7 min
2 | GVSTTVLNIYRGIINLLQLNVKK [S8-vg3] | 22 | 100 | –
3 | HAEHKVKIGVEQKYGQFPQGTEVTYTCSGNYFLM [S3] | – | 5 | –
4 | HKVKKIVKQLYRAEHKVKKIVKQL [S5] | 33 | 0 | –
5 | IYRGIINLIQLAVKKAQNVYQM [S9-vg4] | 35 | 75 | –
6 | LLNAVPHKATHAALKFLKEK [S7-vg2] | 400 | 5 | –
7 | MRKLVLALAKALAKVDKKNL [S6-vg1] | 26 | 5 | –
8 | Magainin II | – | – | Killing rate (Escherichia coli): 60^d min
9 | Nisin | – | – | Killing rate (Escherichia coli): 60^d min
10 | RAEHKVKKIVKQLYGQFRQLTRVTRTCSRFLRRM [S4] | 3.8 | 20 | –
11 | Ranalexin | – | – | Killing rate (Escherichia coli): >60^d min
12 | B1 | – | – | binding to 7-20 kDa lipid A bands [2]: able to bind specifically to lipid A moiety of LPS, albeit less strongly; effect on the enzymatic activity of CAL Factor C [3]: markedly lower competitive effect; agglutination of E. coli [4]: Agglutination; inhibitory effect on growth of the various bacteria [5]: did not have any inhibitory effect
